Laboratory results taken from US20050058733A1, “Health food products” (Daicho Kikaku Incorporated Company, priority 2001, published 2005).

Tests used:
[1] = system: patients with muscle disorders that occurred with aging; test: tablets given to aged patients with muscle disorders (walking difficulties, proctoptosia, backaches, limb pains); format: in vivo, human; conditions: single regular dose of drugs admixed with one of the substances, without curcumin
Excerpt: In Western medicine, it has been understood that proctoptosia and leg, lumbus and arm aches are attributable only to hematogenous disorders and resultant inflammation at local sites. […] Thus, it can be understood that these disorders are attributed to insufficient communication of brain commands to local sites and therefore the hematogenous disorders and onset of inflammation are problems caused by abnormal motions of muscles due to incomplete communication of brain commands.

adrenaline secretion = test: animal experiments using mice: secretomotory action on adrenaline, seen as blood glucose elevation; format: in vivo
Excerpt: No studies have been conducted on the efficacy of curcumin, zingerone, or shogaol on the stimulation of adrenaline secretion.

Row | Structure (SMILES) | amelioration of proctoptosia and leg, lumbus and arm aches [1] | blood glucose levels (secretomotory action on adrenaline) (adrenaline secretion)
1 | C[C@H](CCC(=O)O)[C@H]1CC[C@H]2[C@@H]3[C@H](O)C[C@@H]4C[C@H](O)CC[C@]4(C)[C@H]3C[C@H](O)[C@]12C [cholic acid] | not significantly ameliorated | 
2 | COc1cc(/C=C/C(=O)/C=C(O)/C=C/c2ccc(O)c(OC)c2)ccc1O [curcumin] |  | remarkably elevated
3 | C[C@H](CC[C@@H](O)C(CO)CO)C1CCC2C3C(C[C@H](O)[C@@]21C)[C@@]1(C)CC[C@@H](O)CC1C[C@H]3O (some centres unmarked) [scymnol, Scymnol] | not significantly ameliorated | 
4 | CCCCC/C=C/C(=O)CCc1ccc(O)c(OC)c1 [shogaol, (6)-shogaol] |  | remarkably elevated
5 | COc1cc(CCC(C)=O)ccc1O [zingerone] |  | remarkably elevated
